Data on one compound can be found in patent US8993574B2, “Pyrrole antifungal agents” (F2G Ltd, priority 2008, dated 2015).

Molecules are shown by their SMILES. A value given as a limit tells only on which side of the number the result lay.

Series [1] concerns Aspergillus and other filamentous fungi. Nature of the series: Activity in vitro against Aspergillus and other filamentous fungi. Format: cell-based.
Series [2] concerns Aspergillus terreus AT49. Nature of the series: MIC, RPMI medium. Type of series: cell-based. Particulars: Aspergillus terreus, AT49, MIC banded into grades, read-out: MIC grade, A. terreus 49. The gist of the method: (§1)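 Broth microdilution in RPMI medium with 2% glucose and 0.135 M MOPS (pH 7.0); compounds as doubling dilutions over 50-0.05 mg/L, inoculum 1−2×10^4 cfu/mL. Plates incubated 24-48 h at 35° C; OD 485 nm read, MIC being lowest concentration giving >80% growth inhibition versus drug-free control.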

The test system of series [3] is Aspergillus fumigatus AF293. Description: MIC, RPMI medium. The following applies: Aspergillus fumigatus, AF293, MIC banded into grades, read-out: MIC grade, A. fumigatus. Type of series: cell-based. The method, boiled down: as §1
In series [4] the test system is Aspergillus fumigatus AF210. Description: MIC, RPMI medium. Type of series: cell-based. The following applies: Aspergillus fumigatus, AF210, MIC banded into grades, read-out: MIC grade, A. fumigatus 210. The method, boiled down: as §1
The test system of series [5] is Aspergillus niger. Nature of the series: MIC, RPMI medium. Format: cell-based. The following applies: Aspergillus niger, MIC banded into grades, read-out: MIC grade, A. niger. The method, boiled down:
as §1

Series [6] concerns Aspergillus flavus. Description: MIC, RPMI medium. Format: cell-based. The following applies: Aspergillus flavus, MIC banded into grades, read-out: MIC grade, A. flavus. The gist of the method:
as §1

The next series relates to Aspergillus terreus AT4. Description: MIC, YAG medium. Format: cell-based. Particulars: Aspergillus terreus, 24 h at 35° C, MIC banded into grades, read-out: MIC grade, A. terreus. The method, boiled down: (§2)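 Spores from 5-day Sabouraud agar cultures were suspended in YAG medium (1% glucose, 1% ammonium chloride, 0.5% yeast extract) at final inocula of 1−2×10^4 cfu/mL against doubling dilutions of compound (50-0.05 mg/L; 0.5-0.0005 mg/L on repeat). Plates were incubated 24 h at 35° C. MIC was the lowest concentration giving >70% growth inhibition by OD485 versus drug-free control.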

The subject of series [7] is Aspergillus terreus AT49. Nature of the series: MIC, YAG medium. Format: cell-based. Particulars: Aspergillus terreus, 24 h at 35° C, MIC banded into grades, read-out: MIC grade, A. terreus 49. The method, boiled down:
as §2

The test system of series [8] is Aspergillus fumigatus AF293. Description: MIC, YAG medium. Format: cell-based. The following applies: Aspergillus fumigatus, 24 h at 35° C, MIC banded into grades, read-out: MIC grade, A. fumigatus. The method, boiled down: as §2
Series [9] relates to Aspergillus fumigatus AF210. Description: MIC, YAG medium. Type of series: cell-based. Particulars: Aspergillus fumigatus, 24 h at 35° C, MIC banded into grades, read-out: MIC grade, A. fumigatus 210. The gist of the method:
as §2

Series [10] deals with Aspergillus niger. Description: MIC, YAG medium. Type of series: cell-based. Particulars: Aspergillus niger, 24 h at 35° C, MIC banded into grades, read-out: MIC grade, A. niger. The gist of the method: as §2
The subject of series [11] is Aspergillus flavus. Description: MIC, YAG medium. Type of series: cell-based. Particulars: Aspergillus flavus, 24 h, 24 h at 35° C, MIC banded into grades, read-out: MIC grade, A. flavus. The method, boiled down: as §2
A short description of series [12]: Oral bio-availability and tissue distribution. The following applies: in vivo.

Consider `Cc1cc(C)nc(N2CCN(c3ccc(NC(=O)C(=O)c4c(-c5ccccc5)cc(C)n4C)cc3)CC2)c1` [Example 1, 2-(1,5-Dimethyl-3-phenyl-1H-pyrrol-2-yl)-N-{4-[4-(4,6-dimethyl-pyridin-2-yl)-piperazin-1-yl]-phenyl}-2-oxo-acetamide], for which the “activity in vitro against Aspergillus and other filamentous fungi” value in [1] was “excellent activity”. Moreover, the minimal inhibitory concentration (MIC) (with Aspergillus terreus AT49 [2]; in [3]; in series [4]; in the series with Aspergillus niger [5]; in the series on Aspergillus flavus [6]; in the series with Aspergillus terreus AT4) was under 1 µg/mL each time. Further, the MIC (in the series with Aspergillus terreus AT49 [7]; in series [8]; in [9]; in the series with Aspergillus niger [10]; in the series on Aspergillus flavus [11]) was under 1 µg/mL throughout. Also, the tissue distribution entry in series [12] is listed as “good”. Besides, the oral bio-availability result in [12] (po) is reported as “good”.
